Assay results as given in ChEMBL document CHEMBL3872279, “Design, synthesis and biological evaluation of novel 4-(2-fluorophenoxy)quinoline derivatives as selective c-Met inhibitors” (Bioorg Med Chem, 2017).

Key:
[1] = Cytotoxicity against human MKN45 cells after 72 hrs by MTT assay; settings: MKN-45, 72 h
[2] = Cytotoxicity against human A549 cells after 72 hrs by MTT assay; settings: A549, 72 h
[3] = Cytotoxicity against human HT-29 cells after 72 hrs by MTT assay; settings: HT-29, 72 h
HT-29 = test: Potency index, ratio of foretinib IC50 to compound IC50 for human HT-29 cells; type: functional
[4] = target: Epidermal growth factor receptor (Homo sapiens, UniProt P00533); test: Inhibition of EGFR (unknown origin)
[5] = target: Mast/stem cell growth factor receptor Kit (Homo sapiens, UniProt P10721); test: Inhibition of c-KIT (unknown origin)
A549 = test: Potency index, ratio of foretinib IC50 to compound IC50 for human A549 cells; type: functional
[6] = target: ALK tyrosine kinase receptor (Homo sapiens, UniProt Q9UM73); test: Inhibition of ALK (unknown origin)
[7] = target: Vascular endothelial growth factor receptor 2 (Homo sapiens, UniProt P35968); test: Inhibition of VEGFR-2 (unknown origin)
[8] = target: T1, Receptor-type tyrosine-protein kinase FLT3 (Homo sapiens, UniProt P36888); test: Inhibition of FLT3 (unknown origin)
T1 sequence (P36888 whole entry): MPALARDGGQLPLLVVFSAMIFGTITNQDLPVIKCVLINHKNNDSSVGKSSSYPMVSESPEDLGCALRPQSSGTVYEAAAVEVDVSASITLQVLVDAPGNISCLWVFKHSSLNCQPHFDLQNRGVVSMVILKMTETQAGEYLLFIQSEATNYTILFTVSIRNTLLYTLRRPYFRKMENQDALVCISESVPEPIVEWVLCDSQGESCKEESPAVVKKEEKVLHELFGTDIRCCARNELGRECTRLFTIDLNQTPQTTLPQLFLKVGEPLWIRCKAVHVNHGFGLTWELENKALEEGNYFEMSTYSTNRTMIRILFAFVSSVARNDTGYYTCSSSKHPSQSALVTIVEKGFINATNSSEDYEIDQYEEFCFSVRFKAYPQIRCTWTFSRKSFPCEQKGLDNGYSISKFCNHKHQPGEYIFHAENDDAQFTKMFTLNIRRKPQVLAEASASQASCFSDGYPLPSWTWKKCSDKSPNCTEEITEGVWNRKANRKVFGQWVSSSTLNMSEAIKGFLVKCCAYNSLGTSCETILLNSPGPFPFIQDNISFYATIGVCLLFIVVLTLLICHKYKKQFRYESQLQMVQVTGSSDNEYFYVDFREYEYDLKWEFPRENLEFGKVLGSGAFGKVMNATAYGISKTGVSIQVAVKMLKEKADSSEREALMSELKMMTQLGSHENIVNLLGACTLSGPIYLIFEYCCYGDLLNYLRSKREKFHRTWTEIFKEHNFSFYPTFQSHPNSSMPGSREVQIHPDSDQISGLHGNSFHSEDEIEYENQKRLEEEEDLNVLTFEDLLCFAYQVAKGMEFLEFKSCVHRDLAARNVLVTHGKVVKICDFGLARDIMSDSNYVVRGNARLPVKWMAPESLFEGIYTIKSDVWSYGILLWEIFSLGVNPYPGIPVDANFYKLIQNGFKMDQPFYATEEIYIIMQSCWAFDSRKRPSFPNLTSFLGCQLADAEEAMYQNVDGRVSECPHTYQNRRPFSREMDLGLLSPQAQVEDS

[9] = target: Hepatocyte growth factor receptor (Homo sapiens, UniProt P08581); test: Inhibition of c-MET (unknown origin) using poly (Glu, Tyr) 4:1 as substrate after 30 mins by HTRF assay
MKN-45 = test: Potency index, ratio of foretinib IC50 to compound IC50 for human MKN45 cells; type: functional

Chain of Hepatocyte growth factor receptor (P08581 whole entry): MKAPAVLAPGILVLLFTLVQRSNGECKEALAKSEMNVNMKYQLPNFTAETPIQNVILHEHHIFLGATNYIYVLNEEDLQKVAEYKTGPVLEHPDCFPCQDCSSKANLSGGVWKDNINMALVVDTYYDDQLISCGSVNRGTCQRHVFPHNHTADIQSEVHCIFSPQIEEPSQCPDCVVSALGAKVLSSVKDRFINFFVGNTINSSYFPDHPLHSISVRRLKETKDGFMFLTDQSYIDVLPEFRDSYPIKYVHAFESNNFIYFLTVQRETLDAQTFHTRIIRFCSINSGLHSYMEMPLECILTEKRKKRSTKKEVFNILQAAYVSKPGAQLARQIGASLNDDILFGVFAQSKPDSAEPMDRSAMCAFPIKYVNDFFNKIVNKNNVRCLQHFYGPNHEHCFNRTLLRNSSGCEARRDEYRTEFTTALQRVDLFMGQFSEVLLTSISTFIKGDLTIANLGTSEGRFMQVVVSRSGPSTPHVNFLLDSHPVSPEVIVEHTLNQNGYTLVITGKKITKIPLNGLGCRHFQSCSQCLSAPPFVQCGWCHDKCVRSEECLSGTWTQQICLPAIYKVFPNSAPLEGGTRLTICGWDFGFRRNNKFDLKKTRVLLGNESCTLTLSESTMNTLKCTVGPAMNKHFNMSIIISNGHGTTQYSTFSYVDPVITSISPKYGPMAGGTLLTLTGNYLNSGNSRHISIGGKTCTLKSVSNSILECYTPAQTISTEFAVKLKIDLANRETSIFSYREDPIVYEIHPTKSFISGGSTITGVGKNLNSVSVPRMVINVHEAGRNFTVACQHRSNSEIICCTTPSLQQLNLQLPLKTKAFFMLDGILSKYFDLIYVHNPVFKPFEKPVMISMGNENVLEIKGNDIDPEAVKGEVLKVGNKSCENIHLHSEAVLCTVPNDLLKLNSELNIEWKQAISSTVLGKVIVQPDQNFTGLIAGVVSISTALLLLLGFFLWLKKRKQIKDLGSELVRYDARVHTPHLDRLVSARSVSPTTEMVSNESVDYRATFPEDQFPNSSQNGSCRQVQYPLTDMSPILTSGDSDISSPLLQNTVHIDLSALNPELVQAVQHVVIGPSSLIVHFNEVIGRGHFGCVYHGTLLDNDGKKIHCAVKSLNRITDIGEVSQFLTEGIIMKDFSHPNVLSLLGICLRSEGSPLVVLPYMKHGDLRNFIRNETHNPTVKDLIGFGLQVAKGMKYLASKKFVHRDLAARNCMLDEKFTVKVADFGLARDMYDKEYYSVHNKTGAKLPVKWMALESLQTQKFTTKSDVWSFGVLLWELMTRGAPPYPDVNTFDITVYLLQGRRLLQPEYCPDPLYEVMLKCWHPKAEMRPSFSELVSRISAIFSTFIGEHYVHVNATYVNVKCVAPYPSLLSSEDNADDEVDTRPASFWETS
Chain of Mast/stem cell growth factor receptor Kit (P10721 whole entry): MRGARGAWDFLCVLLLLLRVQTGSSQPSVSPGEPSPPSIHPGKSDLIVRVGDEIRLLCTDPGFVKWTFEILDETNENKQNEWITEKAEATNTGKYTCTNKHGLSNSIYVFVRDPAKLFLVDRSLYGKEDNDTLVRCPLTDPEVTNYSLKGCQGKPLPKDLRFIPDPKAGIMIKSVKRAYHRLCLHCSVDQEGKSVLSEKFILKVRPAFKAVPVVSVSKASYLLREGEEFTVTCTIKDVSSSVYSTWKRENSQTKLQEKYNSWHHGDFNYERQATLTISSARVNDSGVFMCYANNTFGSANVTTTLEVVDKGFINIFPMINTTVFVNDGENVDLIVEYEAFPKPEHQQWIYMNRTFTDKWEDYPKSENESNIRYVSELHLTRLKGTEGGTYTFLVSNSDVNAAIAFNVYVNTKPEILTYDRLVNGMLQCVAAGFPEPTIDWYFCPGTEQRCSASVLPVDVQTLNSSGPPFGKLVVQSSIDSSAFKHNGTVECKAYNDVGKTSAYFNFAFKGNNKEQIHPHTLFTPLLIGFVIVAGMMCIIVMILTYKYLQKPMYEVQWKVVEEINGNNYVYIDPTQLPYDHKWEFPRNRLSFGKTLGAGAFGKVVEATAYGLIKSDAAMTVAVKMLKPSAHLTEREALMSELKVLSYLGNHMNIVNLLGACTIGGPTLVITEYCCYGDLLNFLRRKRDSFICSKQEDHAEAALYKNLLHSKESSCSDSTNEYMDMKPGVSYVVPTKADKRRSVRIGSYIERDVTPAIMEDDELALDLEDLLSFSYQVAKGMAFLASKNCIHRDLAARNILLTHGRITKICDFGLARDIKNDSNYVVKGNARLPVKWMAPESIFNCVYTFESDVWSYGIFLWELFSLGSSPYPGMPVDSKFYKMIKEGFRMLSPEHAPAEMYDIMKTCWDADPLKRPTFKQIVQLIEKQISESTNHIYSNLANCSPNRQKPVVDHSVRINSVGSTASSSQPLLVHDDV
Chain of ALK tyrosine kinase receptor (Q9UM73 whole entry): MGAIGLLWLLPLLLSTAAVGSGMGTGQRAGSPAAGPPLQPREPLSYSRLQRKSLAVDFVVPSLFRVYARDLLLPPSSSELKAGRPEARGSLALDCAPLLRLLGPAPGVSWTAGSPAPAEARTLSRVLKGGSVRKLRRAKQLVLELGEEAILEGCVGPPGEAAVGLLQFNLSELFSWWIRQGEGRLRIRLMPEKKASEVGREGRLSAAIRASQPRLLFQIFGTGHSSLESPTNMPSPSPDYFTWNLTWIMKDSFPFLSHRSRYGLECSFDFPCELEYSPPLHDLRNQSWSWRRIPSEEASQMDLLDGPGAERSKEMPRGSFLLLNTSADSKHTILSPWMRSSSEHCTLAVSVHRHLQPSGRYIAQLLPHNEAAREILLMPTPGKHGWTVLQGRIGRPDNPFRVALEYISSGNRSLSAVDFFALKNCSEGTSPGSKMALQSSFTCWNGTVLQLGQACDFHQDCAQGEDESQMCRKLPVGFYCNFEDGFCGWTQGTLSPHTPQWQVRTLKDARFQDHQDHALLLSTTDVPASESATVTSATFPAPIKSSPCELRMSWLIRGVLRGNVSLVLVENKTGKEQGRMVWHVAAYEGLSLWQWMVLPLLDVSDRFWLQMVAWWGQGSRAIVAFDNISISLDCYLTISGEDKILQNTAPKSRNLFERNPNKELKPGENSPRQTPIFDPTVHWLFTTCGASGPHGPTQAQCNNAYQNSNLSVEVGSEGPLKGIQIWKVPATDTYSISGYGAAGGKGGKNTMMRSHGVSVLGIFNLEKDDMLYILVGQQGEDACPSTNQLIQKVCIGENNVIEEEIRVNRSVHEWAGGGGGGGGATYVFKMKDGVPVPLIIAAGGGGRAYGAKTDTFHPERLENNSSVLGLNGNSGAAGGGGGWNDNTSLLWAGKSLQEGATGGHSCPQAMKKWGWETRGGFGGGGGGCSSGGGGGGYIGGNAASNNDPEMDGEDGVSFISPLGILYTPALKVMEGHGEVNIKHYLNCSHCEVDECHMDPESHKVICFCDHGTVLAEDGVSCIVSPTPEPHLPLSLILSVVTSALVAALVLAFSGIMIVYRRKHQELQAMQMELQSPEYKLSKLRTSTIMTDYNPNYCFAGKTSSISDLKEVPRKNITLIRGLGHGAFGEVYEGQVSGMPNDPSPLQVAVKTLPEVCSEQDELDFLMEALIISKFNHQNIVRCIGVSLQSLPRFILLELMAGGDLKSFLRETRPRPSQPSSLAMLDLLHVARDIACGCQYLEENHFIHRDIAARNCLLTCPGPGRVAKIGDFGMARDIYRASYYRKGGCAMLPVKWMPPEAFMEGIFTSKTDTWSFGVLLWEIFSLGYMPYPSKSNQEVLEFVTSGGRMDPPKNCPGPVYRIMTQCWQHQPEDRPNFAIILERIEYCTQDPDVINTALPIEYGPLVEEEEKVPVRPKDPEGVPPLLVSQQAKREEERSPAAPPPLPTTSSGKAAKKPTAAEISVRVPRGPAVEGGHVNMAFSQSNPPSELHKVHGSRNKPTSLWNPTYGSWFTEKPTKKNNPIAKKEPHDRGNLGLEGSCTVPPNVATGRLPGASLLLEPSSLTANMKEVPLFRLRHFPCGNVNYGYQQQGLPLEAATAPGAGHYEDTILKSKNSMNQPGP

SMILES | IC50 [1] [nM] | IC50 [2] [nM] | IC50 [3] [nM] | also measured
COc1cc2c(Oc3ccc(NC(=O)/C=C/S(=O)(=O)c4ccc(C)cc4)cc3F)ccnc2cc1OCCCN1CCCCC1 | 1690 | 2310 | 4230 | –
COc1cc2c(Oc3ccc(NC(=O)/C=C/S(=O)(=O)c4ccccc4OC)cc3F)ccnc2cc1OCCCN1CCOCC1 | 1470 | 770 | 1180 | –
COc1cc2c(Oc3ccc(NC(=O)c4cn(-c5cc(C)ccc5C)cn4)cc3F)ccnc2cc1OCCCN1CCC(C)CC1 | 5650 | 7420 | 2220 | –
COc1cc2c(Oc3ccc(NC(=O)c4cn(-c5ccccc5OC(F)(F)F)cn4)cc3F)ccnc2cc1OCCCN1CCN(C)CC1 | 120 | 130 | 170 | –
COc1cc2c(Oc3ccc(NC(=O)/C=C/S(=O)(=O)c4ccccc4F)cc3F)ccnc2cc1OCCCN1CCN(C)CC1 | 280 | 150 | 150 | –
COc1cc2c(Oc3ccc(NC(=O)c4cn(-c5ccc(Cl)cc5)cn4)cc3F)ccnc2cc1OCCCN1CCCCC1 | 5910 | 6560 | 2780 | –
COc1cc2c(Oc3ccc(NC(=O)c4cn(-c5ccccc5OC(F)(F)F)cn4)cc3F)ccnc2cc1OCCCN1CCOCC1 | 180 | 520 | 430 | –
COc1cc2c(Oc3ccc(NC(=O)/C=C/S(=O)(=O)c4ccccc4F)cc3F)ccnc2cc1OCCCN1CCOCC1 | 420 | 210 | 600 | –
COc1cc2c(Oc3ccc(NC(=O)/C=C/S(=O)(=O)c4ccccc4OC)cc3F)ccnc2cc1OCCCN1CCCCC1 | 980 | 470 | 660 | –
COc1cc2c(Oc3ccc(NC(=O)c4cn(-c5cc(C)ccc5C)cn4)cc3F)ccnc2cc1OCCCN1CCOCC1 | 3200 | 5480 | 1960 | –
COc1cc2c(Oc3ccc(NC(=O)c4cn(-c5ccc(Cl)cc5Cl)cn4)cc3F)ccnc2cc1OCCCN1CCN(C)CC1 | 4840 | 3850 | 3050 | –
COc1ccc(S(=O)(=O)/C=C/C(=O)Nc2ccc(Oc3ccnc4cc(OCCCN5CCCCC5)c(OC)cc34)c(F)c2)cc1 | 3580 | 2220 | 1650 | –
COc1cc2c(Oc3ccc(NC(=O)c4cn(-c5ccccc5OC(F)(F)F)cn4)cc3F)ccnc2cc1OCCCN1CCCCC1 | 190 | 270 | 250 | –
COc1cc2c(Oc3ccc(NC(=O)c4cn(-c5ccc(Cl)cc5Cl)cn4)cc3F)ccnc2cc1OCCCN1CCCCC1 | 6240 | 7490 | 4300 | –
COc1cc2c(Oc3ccc(NC(=O)c4cn(-c5ccccc5OC)cn4)cc3F)ccnc2cc1OCCCN1CCOCC1 | 320 | 150 | 200 | –
COc1cc2c(Oc3ccc(NC(=O)c4cn(-c5ccccc5OC)cn4)cc3F)ccnc2cc1OCCCN1CCC(C)CC1 | 600 | 400 | 300 | –
COc1cc2c(Oc3ccc(NC(=O)/C=C/S(=O)(=O)c4ccccc4F)cc3F)ccnc2cc1OCCCN1CCC(C)CC1 | 840 | 410 | 760 | –
COc1cc2c(Oc3ccc(NC(=O)c4cn(-c5ccccc5OC)cn4)cc3F)ccnc2cc1OCCCN1CCCCC1 | 260 | 120 | 100 | –
COc1cc2c(Oc3ccc(NC(=O)/C=C/S(=O)(=O)c4ccccc4OC)cc3F)ccnc2cc1OCCCN1CCC(C)CC1 | 2030 | 3000 | 1960 | –
COc1cc2c(Oc3ccc(NC(=O)/C=C/S(=O)(=O)c4ccccc4OC)cc3F)ccnc2cc1OCCCN1CCN(C)CC1 | 430 | 320 | 270 | –
COc1cc2c(Oc3ccc(NC(=O)c4cn(-c5ccc(Cl)cc5)cn4)cc3F)ccnc2cc1OCCCN1CCN(C)CC1 | 4110 | 5200 | 1350 | –
COc1cc2c(Oc3ccc(NC(=O)/C=C/S(=O)(=O)c4ccc(C)cc4)cc3F)ccnc2cc1OCCCN1CCN(C)CC1 | 2510 | 1510 | 2070 | –
COc1cc2c(Oc3ccc(NC(=O)c4cn(-c5ccccc5OC(F)(F)F)cn4)cc3F)ccnc2cc1OCCCN1CCC(C)CC1 | 150 | 760 | 690 | –
COc1cc2c(Oc3ccc(NC(=O)c4cn(-c5ccccc5OC)cn4)cc3F)ccnc2cc1OCCCN1CCN(C)CC1 | 220 | 70 | 80 | Ratio IC50 (HT-29): 3.1; IC50 [4]: 690 nM; IC50 [5]: 270 nM; Ratio IC50 (A549): 2.1; IC50 [6]: > 3330 nM; IC50 [7]: 589 nM; IC50 [8]: 400 nM; IC50 [9]: 1.1 nM; Ratio IC50 (MKN-45): 1.4
COc1cc2c(Oc3ccc(NC(=O)c4cn(-c5cc(C)ccc5C)cn4)cc3F)ccnc2cc1OCCCN1CCCCC1 | 830 | 510 | 580 | –
COc1cc2c(Oc3ccc(NC(=O)c4cn(-c5cc(C)ccc5C)cn4)cc3F)ccnc2cc1OCCCN1CCN(C)CC1 | 650 | 350 | 470 | –
COc1ccc(S(=O)(=O)/C=C/C(=O)Nc2ccc(Oc3ccnc4cc(OCCCN5CCN(C)CC5)c(OC)cc34)c(F)c2)cc1 | 2770 | 1870 | 1660 | –
